Common to all, as to format: in vivo
Test [1] has as its system Nicotiana benthamiana. Kind of test: Test Example 5: growth promotion under low-temperature stress by hydroponics of Nicotiana benthamiana, 1 ppm. The conditions noted are these: 1 ppm in medium, low-temperature stress 7 days at 1.5±1.0° C., green leaf area 3 days later, equation (1). As for the experimental part:
(§1) Test for Evaluating Growth Promotion Under Low-Temperature Stress by Hydroponics of Nicotiana benthamiana
A DMSO solution, which contained one of the compounds 2, 4, 5, 6, 11, 12, 17, 20, 21, 28, 30, 34, 36, 37, 51, 52, 53, 55, 56, 58, 59, 60, 64, 65, 66, 68, 69, 70, 74, 77, 82, 83, 84, 86 and 87 of the present invention at a concentration of 1,000 ppm, was prepared. The DMSO solution of the compound of the present invention was added at a volume ratio of 1/1,000 to the Murashige•Scoog medium of a ½-fold concentration (a medium containing 2.3 g of mixed salts for the Murashige•Scoog medium (manufactured by Wako Pure Chemical Industries, Ltd.), 200 mg of Myo-inositol (manufactured by Sigma-Aldrich Co. LLC.), 2 mg of nicotinic acid (manufactured by Wako Pure Chemical Industries, Ltd.), 2 mg of pyridoxine hydrochloride (manufactured by Wako Pure Chemical Industries, Ltd.), 20 mg of thiamine hydrochloride (manufactured by Wako Pure Chemical Industries, Ltd.), 20 g of sucrose (manufactured by Wako Pure Chemical Industries, Ltd.), and 1 g of MES (manufactured by DOJINDO LABORATORIES) per 1 L of water and having pH adjusted to 5.8), thereby preparing a medium containing the compound of the present invention at a concentration of 1 ppm.
(§2) Seeds of Nicotiana benthamiana were seeded in the 5 μL of the medium and cultured overnight at 22° C. Thereafter, 45 μL of the medium containing the compound of the present invention at a concentration of 1 ppm was added thereto, and the seeds are cultured for 7 days at 22° C., an illuminance of 4,000 lux, and a day length of 16 hours, and the nursery plants raised from the Nicotiana benthamiana were treated with the compound. Moreover, instead of the above medium, a test plot, which was obtained by performing the same treatment by using a medium prepared by adding DMSO to the Murashige•Scoog medium of ½-fold concentration at a volume ratio of 1/1,000, was used as a control plot not treated with the compound.
(§3) The nursery plants of the Nicotiana benthamiana treated with the compound were subjected to low-temperature treatment by being cultivated for 7 days at 1.5±1.0° C., an illuminance of 2,000 lux, and a day length of 16 hours.
The nursery plants of the Nicotiana benthamiana having undergone the low-temperature stress treatment were cultured for 3 days at 22° C., an illuminance of 4,000 lux, and a day length of 16 hours. Thereafter, the area of green leaf was quantified by Scanalyzer HTS (manufactured by LemnaTec GmbH). Moreover, the value of the control plot not treated with the compound that had not yet been subjected to the low-temperature stress treatment was measured in the same manner. A value of a relative leaf area was calculated based on the following equation (1), and if the value of a relative leaf area was 5 or greater, the compound was evaluated to have a mitigating effect. As a result of the evaluation, it was confirmed that when the plant was treated with one of the compounds 2, 4, 5, 6, 11, 12, 17, 20, 21, 28, 30, 34, 36, 37, 51, 52, 53, 55, 56, 58, 59, 60, 64, 65, 66, 68, 69, 70, 74, 77, 82, 83, 84, 86 and 87 of the present invention at 1 ppm, the value of a relative leaf area was 5 or greater, compared to the area of green leaf of the control plot not treated with compound. Accordingly, it was confirmed that the treatment using the compound of the present invention brings about a growth promotion effect.
(§4) Relative leaf area=100*(a green area of a plot treated with the compound of the present invention−a green area of a control plot not treated with the compound of the present invention)/(a green area of a control plot not treated with the compound of the present invention that has not yet been subjected to low-temperature stress treatment−a green area of a control plot not treated with the compound of the present invention) Equation (1): […]

Test [2] deals with Rice (variety: Nipponbare). Kind of test: Test Example 2: promotion of root growth by hydroponics of rice, 1 ppm. Particulars: Oryza sativa, hydroponic solution containing the test compound at 1 ppm, average of 4 or 5 individuals, read-out: Relative value of length of seminal root (%-untreated control plot). The method, then:
(§5) Test for Evaluating Promotion of Root Growth by Hydroponics of Rice
(§6) Rice (variety: Nipponbare)
A DMSO solution, which contained one of the compounds 1, 3, 11, 12, 14, 15, 17, 21, 28, 30, 33, 34, 35, 36, 37, 38, 40, 41, 43, 44, 45, 46, 47, 49, 50, 51, 52, 53, 54, 55, 56, 61, 62, 63, 65, 67, 68, 69, 70, 73, 74, 75, 76, 77, 80, 82, 83, 85 and 86 of the present invention at a concentration of 10,000 ppm, was added to Hoagland hydroponic solution (Hoagland and Arnon, California Agricultural Experiment Station 1950 Circular 347 pp. 34) of ¼-fold concentration at a volume ratio of 1/10,000. In this manner, hydroponic solutions containing one of the compounds 1, 3, 11, 12, 14, 15, 17, 21, 28, 30, 33, 34, 35, 36, 37, 38, 40, 41, 43, 44, 45, 46, 47, 49, 50, 51, 52, 53, 54, 55, 56, 61, 62, 63, 65, 67, 68, 69, 70, 73, 74, 75, 76, 77, 80, 82, 83, 85 and 86 of the present invention at 1 ppm were prepared respectively. As an untreated control plot, a hydroponic solution obtained by adding DMSO to Hoagland hydroponic solution of ¼-fold concentration at a volume ratio of 1/10,000 was used. Rice seeds were soaked in a 1% aqueous sodium hypochlorite solution for 10 minutes, then soaked in a 70% ethanol solution for surface sterilization, and then washed with distilled water. The sterilized seeds were soaked in a hydroponic solution containing the test compound described above at 1 ppm and incubated in a dark place for 3 days at 28° C. to perform treatment for hastening germination.
Thereafter, 30 ml of hydroponic solution containing the test compound at 1 ppm was dispensed in a plastic tube (diameter of 20 mm×height of 113 mm) of which the side was covered with cardboard to block light. A float prepared using a styrene board and vinyl mesh was floated, and the rice seeds that had undergone the treatment for hastening germination were placed on the float on the surface of the hydroponic solution. The seeds were cultivated for 3 days at 26° C., an illuminance of 4,000 lux of the top surface of the tube, a humidity of 50%, and a day length of 16 hours.
The nursery plants of rice obtained after cultivation were measured in terms of the length of seminal root by using WinRHIZO system (manufactured by Regent Instruments Inc). For each test plot, an average of the measured values of the seminal root of 4 or 5 individuals was determined.

For test [3], the system named is Nicotiana benthamiana. Kind of test: Test Example 4: growth promotion under low-temperature stress by hydroponics of Nicotiana benthamiana, 10 ppm. Particulars: 10 ppm in medium, low-temperature stress 7 days at 1.5±1.0° C., green leaf area 3 days later, equation (1). As for the experimental part:
as §1
A DMSO solution, which contained one of the compounds 1, 8, 9, 13, 18, 19, 22, 23, 29, 32, 33, 34, 39, 40, 41, 43, 44, 51, 53, 54, 55, 56, 58, 60, 62, 63, 64, 65, 67, 69, 71, 73, 74, 75, 77, 79, 82, 83 and 86 of the present invention at a concentration of 10,000 ppm, was prepared. The DMSO solution of the compound of the present invention was added at a volume ratio of 1/1,000 to the Murashige•Scoog medium of a ½-fold concentration (a medium containing 2.3 g of mixed salts for the Murashige•Scoog medium (manufactured by Wako Pure Chemical Industries, Ltd.), 200 mg of Myo-inositol (manufactured by Sigma-Aldrich Co. LLC.), 2 mg of nicotinic acid (manufactured by Wako Pure Chemical Industries, Ltd.), 2 mg of pyridoxine hydrochloride (manufactured by Wako Pure Chemical Industries, Ltd.), 20 mg of thiamine hydrochloride (manufactured by Wako Pure Chemical Industries, Ltd.), 20 g of sucrose (manufactured by Wako Pure Chemical Industries, Ltd.), and 1 g of MES (manufactured by DOJINDO LABORATORIES) per 1 L of water and having pH adjusted to 5.8), thereby preparing a medium containing the compound of the present invention at a concentration of 10 ppm.
as §2, with “concentration of 10 ppm was” for “concentration of 1 ppm was”, “seeds are cultivated for 7” for “seeds are cultured for 7”
as §3
The nursery plants of the Nicotiana benthamiana having undergone the low-temperature stress treatment were cultivated for 3 days at 22° C., an illuminance of 4,000 lux, and a day length of 16 hours. Thereafter, the area of green leaf was quantified by Scanalyzer HTS (manufactured by LemnaTec GmbH). Moreover, the value of the control plot not treated with the compound that had not yet been subjected to the low-temperature stress treatment was measured in the same manner. A value of a relative leaf area was calculated based on the following equation (1), and if the value of a relative leaf area was 5 or greater, the compound was evaluated to have a mitigating effect. As a result of the evaluation, it was confirmed that when the plant was treated with one of the compounds 1, 8, 9, 13, 18, 19, 22, 23, 29, 32, 33, 34, 39, 40, 41, 43, 44, 51, 53, 54, 55, 56, 58, 60, 62, 63, 64, 65, 67, 69, 71, 73, 74, 75, 77, 79, 82, 83 and 86 of the present invention at 10 ppm, the value of a relative leaf area was 5 or greater, compared to the area of green leaf of the control plot not treated with compound. Accordingly, it was confirmed that the treatment using the compound of the present invention brings about a growth promotion effect.
as §4

In test [4] the test system is Rice (variety: Nipponbare). Kind of test: Test Example 1: promotion of root growth by hydroponics of rice, 10 ppm. Particulars: Oryza sativa, hydroponic solution containing the test compound at 10 ppm, average of 4 or 5 individuals, read-out: Relative value of length of seminal root (%-untreated control plot). As for the experimental part: as §5, §6
Rice seeds were soaked in a 1% aqueous sodium hypochlorite solution for 10 minutes, then soaked in a 70% ethanol solution for surface sterilization, and then washed with distilled water. The sterilized seeds were soaked in a hydroponic solution containing the test compound described above at 10 ppm and incubated in a dark place for 3 days at 28° C. to perform treatment for hastening germination.
Thereafter, 30 ml of hydroponic solution containing the test compound at 10 ppm was dispensed in a plastic tube (diameter of 20 mm×height of 113 mm) of which the side was covered with cardboard to block light. A float prepared using a styrene board and vinyl mesh was floated, and the rice seeds that had undergone the treatment for hastening germination were placed on the float on the surface of the hydroponic solution. The seeds were cultivated for 3 days at 26° C., an illuminance of 4,000 lux of the top surface of the tube, a humidity of 50%, and a day length of 16 hours.
The nursery plants of rice obtained after culturing were measured in terms of the length of seminal root by using WinRHIZO system (manufactured by Regent Instruments Inc). For each test plot, an average of the measured values of the seminal root of 4 or 5 individuals was determined.

Where only a bound is given, the exact number is not on record here.

`COC(=O)c1nc2cc(C(F)(F)F)ccc2[nH]1` [Compound 21, methyl 5-(trifluoromethyl)benzimidazole-2-carboxylate] gave a relative leaf area (% of untreated control) at 1 ppm in the test on Nicotiana benthamiana [1] of at least 5%. For the same molecule, the change in vivo at 1 ppm in test [2] was above 5%.
As for `COC(=O)c1oc2ccccc2c1N(C)C` [Compound 58], in the test with Nicotiana benthamiana [3], the relative leaf area at 10 ppm is at least 5%. In addition, the relative leaf area (% of untreated control) at 1 ppm in the test on Nicotiana benthamiana [1] is at least 5%.
`COC(=O)c1oc2ccccc2c1NS(C)(=O)=O` [Compound 60] came in with a relative leaf area at 10 ppm in the test with Nicotiana benthamiana [3] of at least 5%. For the same molecule, the change in vivo at 10 ppm in test [4] is above 5%. This molecule also came in with a relative leaf area (% of untreated control) at 1 ppm with Nicotiana benthamiana [1] of at least 5%.

The values above are taken from patent US20150289512A1, “METHOD FOR PROMOTING PLANT GROWTH” (SUMITOMO CHEMICAL COMPANY, LIMITED, priority 2012, published 2015).
